# In ChEMBL document CHEMBL5236550, “Small molecule selenium-containing compounds: Recent development and therapeutic applications” (Eur J Med Chem, 2021):
# pIC50, pKi: −log10 of the molar value.
# How the values were obtained:
# EBC-1 = test: Anticancer activity against human EBC-1 cells assessed as cell growth inhibition incubated for 72 hrs by resazurin based spectrophotometer analysis; type: functional; conditions: EBC-1, 72 h
# PC-3 = test: Anticancer activity against human PC-3 cells assessed as cell growth inhibition incubated for 24 to 96 hrs by MTT assay; type: functional, cell-based
# DU-145 = test: Anticancer activity against human DU-145 cells assessed as cell growth inhibition incubated for 24 to 96 hrs by MTT assay; type: functional, cell-based
# T47D = test: Anticancer activity against human T47D cells assessed as cell growth inhibition; type: functional, cell-based
# MCF7 [1] = test: Anticancer activity against human MCF7 cells assessed as cell growth inhibition; type: functional, cell-based
# K562 = test: Anticancer activity against human K562 cells assessed as cell growth inhibition incubated for 48 hrs by MTT assay; type: functional, cell-based; conditions: K562, 48 h
# MDA-MB-361 = test: Anticancer activity against human MDA-MB-361 cells assessed as cell growth inhibition incubated for 48 hrs by MTT assay; type: functional, cell-based; conditions: MDA-MB-361, 48 h
# HeLa [2] = test: Anticancer activity against human HeLa cells assessed as cell growth inhibition incubated for 48 hrs; type: functional, cell-based
# LS174T = test: Anticancer activity against human LS174T cells assessed as cell growth inhibition incubated for 48 hrs by MTT assay; type: functional, cell-based
# HeLa [3] = test: Anticancer activity against human HeLa cells assessed as cell growth inhibition incubated for 48 hrs by MTT assay; type: functional, cell-based
# EJ = test: Anticancer activity against human EJ cells assessed as cell growth inhibition incubated for 72 hrs by MTT assay; type: functional, cell-based
# Carbonic anhydrase 7 = Carbonic anhydrase 7 (Homo sapiens, UniProt P43166); test: Inhibition of human carbonic anhydrase 7 assessed as inhibition constant by a stopped flow CO2 hydrase assay
# Carbonic anhydrase 7, sequence (P43166 whole entry): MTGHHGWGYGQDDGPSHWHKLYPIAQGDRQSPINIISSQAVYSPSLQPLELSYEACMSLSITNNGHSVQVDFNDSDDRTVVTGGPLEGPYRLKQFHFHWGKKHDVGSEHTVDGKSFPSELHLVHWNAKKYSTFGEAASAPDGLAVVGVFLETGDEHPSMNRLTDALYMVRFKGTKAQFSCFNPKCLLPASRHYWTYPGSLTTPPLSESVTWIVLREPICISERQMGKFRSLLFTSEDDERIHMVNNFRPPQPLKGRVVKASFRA
# Staphylococcus aureus [4] = test: Antibacterial activity against Staphylococcus aureus ATCC 2592 assessed as bacterial growth inhibition incubated for 20 to 24 hrs by microdilution assay; type: functional; conditions: time 20-24 hrs
# Enterococcus faecalis = test: Antibacterial activity against Enterococcus faecalis ATCC 29212 assessed as bacterial growth inhibition incubated for 20 to 24 hrs by microdilution assay; type: functional; conditions: time 20-24 hrs
# Staphylococcus aureus [5] = test: Antibacterial activity against Staphylococcus aureus HEMSA assessed as bacterial growth inhibition incubated for 20 to 24 hrs by microdilution assay; type: functional; conditions: time 20-24 hrs
# MCF7 [6] = test: Anticancer activity against human MCF7 cells assessed as cell growth inhibition incubated for 48 hrs by MTT assay; type: functional, cell-based; conditions: MCF7, 48 h
# Trypanosoma cruzi = test: Antibacterial activity against Trypanosoma cruzi Y assessed as fold change in bacterial growth incubated for 24 hrs; type: functional
# [7] = Inhibition of Vibrio cholerae carbonic anhydrase alpha assessed as inhibition constant by stopped-flow CO2 hydration assay
# Carbonic anhydrase 1 = Carbonic anhydrase 1 (Homo sapiens, UniProt P00915); test: Inhibition of human carbonic anhydrase 1 assessed as inhibition constant
# Carbonic anhydrase 1, sequence (P00915 whole entry): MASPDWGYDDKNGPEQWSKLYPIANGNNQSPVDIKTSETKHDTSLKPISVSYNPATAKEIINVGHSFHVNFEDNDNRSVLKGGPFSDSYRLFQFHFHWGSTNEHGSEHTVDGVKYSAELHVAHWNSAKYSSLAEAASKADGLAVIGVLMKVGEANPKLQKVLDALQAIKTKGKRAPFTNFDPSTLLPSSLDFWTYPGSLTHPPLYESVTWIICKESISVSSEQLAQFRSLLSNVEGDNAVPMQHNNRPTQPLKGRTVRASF
# Carbonic anhydrase 2 = Carbonic anhydrase 2 (Homo sapiens, UniProt P00918); test: Inhibition of human carbonic anhydrase 2 assessed as inhibition constant
# Carbonic anhydrase 9 = Carbonic anhydrase 9 (Homo sapiens, UniProt Q16790); test: Inhibition of human carbonic anhydrase 9 assessed as inhibition constant
# Carbonic anhydrase 12 = Carbonic anhydrase 12 (Homo sapiens, UniProt O43570); test: Inhibition of human carbonic anhydrase 12 assessed as inhibition constant
# Carbonic anhydrase 12, sequence (O43570 whole entry): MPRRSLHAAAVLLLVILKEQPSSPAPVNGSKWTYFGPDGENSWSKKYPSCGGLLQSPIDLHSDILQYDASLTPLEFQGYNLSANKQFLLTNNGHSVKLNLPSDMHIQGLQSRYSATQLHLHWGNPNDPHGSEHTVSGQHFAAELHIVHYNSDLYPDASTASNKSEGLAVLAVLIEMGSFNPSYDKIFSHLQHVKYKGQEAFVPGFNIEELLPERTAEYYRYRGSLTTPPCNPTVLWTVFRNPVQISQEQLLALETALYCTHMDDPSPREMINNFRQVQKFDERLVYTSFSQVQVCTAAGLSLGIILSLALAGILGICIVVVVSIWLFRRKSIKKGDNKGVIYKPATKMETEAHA
# Leishmania major = test: Antibacterial activity against Leishmania major assessed as bacterial growth inhibition incubated for 72 hrs by MTT assay; type: functional, organism-based
# Leishmania amazonensis = test: […] inhibition incubated for 72 hrs by Giemsa stain based microscopic analysis; type: functional, organism-based
# HepG2 = test: Anticancer activity against human HepG2 cells assessed as cell growth inhibition incubated for 48 hrs; type: functional, cell-based; conditions: HepG2, 48 h
# HeLa [8] = test: Anticancer activity against human HeLa assessed as cell growth inhibition; type: functional, cell-based
# HeLa [9] = test: Anticancer activity against human HeLa cells assessed as cell growth inhibition; type: functional, cell-based
smiles,measurement,setting,value
CN(C)C(SCCCCCCN(C)c1ccc(-n2[se]c3ccccc3c2=O)cc1)=[N+](C)C,pIC50,EBC-1,> 4.70
O=c1c2ccccc2[se]n1CCn1[se]c2ccccc2c1=O [ETHASELEN],pIC50,PC-3,4.75
same,pIC50,DU-145,4.81
O=C(NC(=[Se])Nc1ccccc1)c1cccs1,pIC50,T47D,5.21
same,pIC50,MCF7 [1],5.38
NC(=[Se])N/N=C/c1cccc2cccnc12,pIC50,K562,5.40
same,pIC50,MDA-MB-361,5.04
same,pIC50,HeLa [2],5.18
same,pIC50,LS174T,4.84
same,pIC50,HeLa [3],5.04
COc1ccc(-c2nc3ccc(-c4ccc5n[se]nc5c4)cc3[nH]2)cc1,pIC50,EJ,5.83
Cc1ccc([Se]CC(C)N)cc1 (stereo not drawn),pKi,Carbonic anhydrase 7,4.98
CC(=O)C[Se]C(=O)c1ccc(Cl)cc1,MIC,Staphylococcus aureus [4],3.12 µM
same,MIC,Enterococcus faecalis,12.5 µM
same,MIC,Staphylococcus aureus [5],3.91 µM
CCNCc1ccccc1[Se][Se]c1ccccc1CNCC,pIC50,MCF7 [6],4.82
CC1(C)OC2=C(CC1[Se]c1ccc(F)cc1)C(=O)C(=O)c1ccccc12 (stereo not drawn),fold change (FC),Trypanosoma cruzi,2.6
NS(=O)(=O)c1ccc(CCNC(=[Se])NC(=O)c2ccc3c(c2)OCO3)cc1,pKi,[7],9.52
NS(=O)(=O)c1ccc(CCNC(=O)C[Se]c2ccccc2)cc1,pKi,Carbonic anhydrase 1,7.19
same,pKi,Carbonic anhydrase 2,8.31
same,pKi,Carbonic anhydrase 9,8.33
same,pKi,Carbonic anhydrase 12,8.42
[Se]=C=NCCCCCCC1Cc2cccc3cccc(c23)C1,pIC50,Leishmania major,7.52
same,pIC50,Leishmania amazonensis,6.55
CN(C)c1ccc(/C=C/c2c3ccccc3c(/C=C/c3ccc(OCCCCCC[Se][Se]CCCCCCOc4ccc(/C=C/c5c6ccccc6c(/C=C/c6ccc(N(C)C)cc6)c6ccccc56)cc4)cc3)c3ccccc23)cc1,pIC50,HepG2,5.35
same,pIC50,HeLa [2],5.40
COC(CNC(=[Se])Nc1ccc([N+](=O)[O-])cc1)c1ccc(O)c(O)c1 (stereo not drawn),pIC50,HeLa [8],5.42
same,pIC50,HeLa [9],5.74
